From article PMC9139167, “Rational Discovery of Antiviral Whey Protein-Derived Small Peptides Targeting the SARS-CoV-2 Main Protease” (Biomedicines, 2022)
Where a SMILES comes first, the peptide text is derived from it. The star is where a group is joined. Cbz = O=C(OCc1ccccc1)*

What was measured:
SARS-CoV-2 3CL Protease = SARS-CoV-2 3CL Protease (Severe acute respiratory syndrome coronavirus 2, UniProt P0DTD1); assay: biochemical
3C^pro = conditions: ref [56]; cited from earlier work
Gram-positive bacteria = conditions: ref [33],[34]; cited from earlier work
DPP-4 = conditions: ref [33],[34]; cited from earlier work
Source text: Recently, we investigated ACE inhibitory activity by peptide sequences, derived from the enzymatic hydrolysis of whey proteins and predicted by molecular docking and related prioritization studies.

[1] = read-out: Relative Inhibition (RI %)

## CC[C@H](C)[C@H](N)C(=O)N[C@@H](C)C(=O)N[C@@H](CCC(=O)O)C(=O)N[C@@H](CCCCN)C(=O)O [IAEK] (H-IAEK-OH)
SARS-CoV-2 3CL Protease
  IC50: 154 µM
SARS-CoV-2 3CL Protease; [1]
  inhibition at 0.036 µM: 34.6 ± 1.13%
  inhibition at 0.36 µM: 40.5 ± 1.26%
  inhibition at 3.6 µM: 46.5 ± 3.48%
  inhibition at 36.6 µM: 46.6 ± 3.79%
  inhibition at 109.8 µM: 49.7 ± 3.16%
  inhibition at 183 µM: 87.7 ± 1.61%
  inhibition at 366 µM: 84 ± 3.39%

## Cbz-Leu-Phe-Gln-aldehyde [tripeptide aldehydes]
3C^pro
  inhibitory activity against 3C^pro: poor inhibitory activity

## IPAVFK
Gram-positive bacteria
  antimicrobial activity: antimicrobial activity against Gram-positive bacteria
DPP-4
  DPP-4 inhibitory activity: exhibited DPP-4 inhibitory activity
